Assay: Hydrogen peroxide retention of extracts after desiccation and rehydration (colorimetric strips)
Assay type: physicochemical
Conditions: dissolved in 35% hydrogen peroxide, heated at 80° C., rehydrated
Method: In order to compare the samples provided above, a test series was prepared in 30 ml tubes containing from 1 g˜10 g of the above extracts of Chinese Gall, Green Tea, Pomegranate and Resveratrol. Each was dissolved in 20 ml of 35% hydrogen peroxide then separate to two aliquots. One part was heated at 80° C. to a dark viscous semi-liquid and allowed to desiccate to a final volume of 5 ml. Each was rehydrated and serially diluted to detection range.

Q: With `Oc1ccc(C=Cc2cc(O)cc(O)c2)cc1` [resveratrol, Resveratrol] as the molecule, how does the peroxide retention capability read?
A: relatively less ability to form stable perhydrates

Source: patent US8790640B1, “Treating inflammation with a binding system” (LiveLeaf, Inc., priority 2011, dated 2014)
